Measurements published in patent US20070286886A1, “Materials And Methods For Inducing Apoptosis In Adipocytes” (University of Tennessee Research Foundation, priority 2004, published 2007).
“Also recorded” adds a separate entry of the source.

Assays:
Format in all cases: cell-based
[1] = tested on: 3T3-L1 and UCP2-transfected 3T3-L1 cells; experiment: Mitochondrial membrane potential (JC-1 fluorometry) in adipocytes; details: for mitochondrial potential: 4 h
Experimental: Adipocytes were incubated with adipocyte medium for 4 h with or without 1α,25-(OH)2-D3. Mitochondrial membrane potential was analyzed fluorometrically with a lipophilic cationic dye JC-1 (5,5′,6,6′-tetrachloro-1,1′,3,3′-tetraethylbenzimidazol carbocyanine iodide) using a mitochondrial potential detection kit (Biocarta, San Diego, Calif.). Mitochondrial potential was determined as the ratio of red fluorescence (excitation 550 nm, emission 600 nm) and green fluorescence (excitation 485 nm, emission 535 nm) using a fluorescence microplate reader.
Adipocytes were incubated with adipocyte medium for 4 h with or without GDP, BK 8644, GDP plus BK8644. Mitochondrial membrane potential was analyzed fluorometrically with a lipophilic cationic dye JC-1 (5,5′,6,6′-tetrachloro-1,1′,3,3′-tetraethylbenzimidazol carbocyanine iodide) using a mitochondrial potential detection kit (Biocarta, San Diego, Calif.). Mitochondrial potential was determined as the ratio of red fluorescence (excitation 550 nm, emission 600 nm) and green fluorescence (excitation 485 nm, emission 535 nm) using a fluorescence microplate reader.

[2] = tested on: 3T3-L1 and UCP2-transfected 3T3-L1 adipocytes; experiment: Cytosolic/intracellular calcium (fura-2 dual-wavelength fluorescence imaging) in adipocytes
[3] = tested on: 3T3-L1 and UCP2-transfected 3T3-L1 adipocytes; experiment: Mitochondrial calcium (rhod-2 AM fluorescence) in adipocytes
Experimental: (§1) Rhod-2/AM was used for qualitative measurement of [Ca^2+]m. Cells were incubated with the Ca^2+-sensitive fluorescent indicator rhod-2 AM (1-1.5 μM) for at least 1 h at 37° C. in 5% CO2 in humidified air. Because rhod-2 AM consists of a cationic rhodamine molecule, it accumulates preferentially inside the mitochondria due to their negative membrane potential. After loading, the cells were kept in rhod-2 AM-free standard solution for at least 1 h to allow conversion of the dye to its Ca^2+-sensitive, free acid form. Images of [Ca^2+]m were acquired at the wavelength of 552 nm excitation and 590 nm emission using the intracellular imaging system described above. Because rhod-2 is not a ratiometric dye, its fluorescence intensity was not calibrated to obtain absolute values of [Ca^2+]m. Instead, only relative values were recorded as fluorescence signal (F) relative to the control value (F0). After baseline calcium concentration was measured, the 1α,25-(OH)2-D3 was immediately applied to the cells and the calcium concentration was measured again.
as §1, with “the Ca^2+ sensitive” for “the Ca^2+-sensitive”, “AM (1-1·5 μM),” for “AM (1-1.5 μM)”, “at 370 degrees Celsius” for “at 37° C.”, “air. Since” for “air. Because”, “above. Since” for “above. Because”, “(F0).” for “(F0). After baseline calcium concentration was measured, the 1α,25-(OH)2-D3 was immediately applied to the cells and the calcium concentration was measured again.”

SMILES	effect on mitochondrial potential ([1]; 3T3-L1 cells, BK8644 alone)	adipocyte Ca2+ influx / [Ca2+]i ([2]; 1 nM-100 nM, 3T3-L1 cells)	increases in [Ca2+]i ([2]; 3T3-L1 cells)	mitochondrial calcium ([3]; 3T3-L1 cells, p<0.05)	mitochondrial potential ([1]; high dose (100 nM))	mitochondrial potential ([1]; lower doses, 3T3-L1 and UCP2 stably transfected 3T3-L1 cells)	mitochondrial Δψ in L1-UCP2 cells ([1]; physiological doses (0.1-10 nM), L1-UCP2 cells)	cytosolic calcium levels ([2]; 1 nM, 5 nM, 10 nM, 100 nM, control and UCP2-transfected cells)	increase in calcium influx, high dose relative to the lower doses ([2]; high dose (100 nM) vs lower doses)	mitochondrial calcium [Ca2+]m ([3]; high dose (100 nM))	increase of mitochondrial Ca2+ ([3]; high dose (100 nM), P<0.05)	mitochondrial calcium [Ca2+]m ([3]; low doses (0.1 nM to 10 nM), control and UCP2-transfected cells)	suppression of mitochondrial Ca2+ levels ([3]; physiological doses (0.1-10 nM))
COC(=O)C1=C(C)NC(C)=C([N+](=O)[O-])C1c1ccccc1C(F)(F)F (stereo not shown) [Bay K 8644]	no effect	dose-dependent	3-4 fold	increased	–	–	–	–	–	–	–	–	–
C=C1/C(=C\C=C2/CCC[C@]3(C)[C@@H]([C@H](C)CCCC(C)(C)O)CC[C@@H]23)C[C@@H](O)C[C@@H]1O [1α,25-(OH)2-D3, 1α,25-dihydroxyvitamin D3]	–	–	–	–	collapse	significantly increase	restored	dose-dependent increase; also recorded: dose-dependently	10 fold	significantly stimulated	25%	decreased; also recorded: significant decreases	~50%
